According to ChEMBL document CHEMBL5705888, “Substrate specificity and inhibitors of LRRK2, a protein kinase mutated in Parkinson's disease” (Biochem J, 2009):

Assays:
[1] = molecular target: Serine/threonine-protein kinase N2 (Homo sapiens) (UniProt Q16513); test: Inhibition of PRK2 (unknown origin) at 1 uM incubated for 30 mins in presence of [gamma-33P]ATP by multidrop micro reagent based assay relative to control; values are per cent of control
[2] = molecular target: Maternal embryonic leucine zipper kinase (Homo sapiens) (UniProt Q14680); test: Inhibition of MELK (unknown origin) at 1 uM incubated for 30 mins in presence of [gamma-33P]ATP by multidrop micro reagent based assay relative to control; values are per cent of control
[3] = molecular target: MAP kinase-interacting serine/threonine-protein kinase 2 (Homo sapiens) (UniProt Q9HBH9); test: Inhibition of MNK2 (unknown origin) at 1 uM incubated for 30 mins in presence of [gamma-33P]ATP by multidrop micro reagent based assay relative to control; values are per cent of control
[4] = molecular target: Rho-associated protein kinase 2 (Homo sapiens, UniProt O75116); test: Inhibition of ROCK2 (unknown origin) at 1 uM incubated for 30 mins in presence of [gamma-33P]ATP by multidrop micro reagent based assay relative to control; values are per cent of control
[5] = molecular target: T1, Leucine-rich repeat serine/threonine-protein kinase 2 (Homo sapiens, UniProt Q5S007); test: Inhibition of GST-tagged LRRK2 (1326 to 2527 residues) (unknown origin) using peptide as substrate incubated for 15 mins in presence of ATP by immunoblotting analysis
[6] = molecular target: Mitogen-activated protein kinase 14 (Homo sapiens) (UniProt Q16539); test: Inhibition of p38alpha MAPK (unknown origin) at 1 uM incubated for 30 mins in presence of [gamma-33P]ATP by multidrop micro reagent based assay relative to control; values are per cent of control
[7] = molecular target: MAP/microtubule affinity-regulating kinase 3 (Homo sapiens) (UniProt P27448); test: Inhibition of MARK3 (unknown origin) at 1 uM incubated for 30 mins in presence of [gamma-33P]ATP by multidrop micro reagent based assay relative to control; values are per cent of control
[8] = molecular target: Ribosomal protein S6 kinase beta-1 (Homo sapiens) (UniProt P23443); test: Inhibition of S6K1 (unknown origin) at 1 uM incubated for 30 mins in presence of [gamma-33P]ATP by multidrop micro reagent based assay relative to control; values are per cent of control
[9] = molecular target: Mitogen-activated protein kinase 8 (Homo sapiens) (UniProt P45983); test: Inhibition of JNK1 (unknown origin) at 1 uM incubated for 30 mins in presence of [gamma-33P]ATP by multidrop micro reagent based assay relative to control; values are per cent of control
[10] = molecular target: T1, Leucine-rich repeat serine/threonine-protein kinase 2; test: Inhibition of LRRK2 (unknown origin) at 1 uM incubated for 30 mins in presence of [gamma-33P]ATP by multidrop micro reagent based assay relative to control; values are per cent of control
[11] = molecular target: Serine/threonine-protein kinase PAK 6 (Homo sapiens) (UniProt Q9NQU5); test: Inhibition of PAK6 (unknown origin) at 1 uM incubated for 30 mins in presence of [gamma-33P]ATP by multidrop micro reagent based assay relative to control
[12] = molecular target: Tyrosine-protein kinase CSK (Homo sapiens) (UniProt P41240); test: Inhibition of CSK (unknown origin) at 1 uM incubated for 30 mins in presence of [gamma-33P]ATP by multidrop micro reagent based assay relative to control
[13] = molecular target: Serine/threonine-protein kinase Nek6 (Homo sapiens) (UniProt Q9HC98); test: Inhibition of NEK6 (unknown origin) at 1 uM incubated for 30 mins in presence of [gamma-33P]ATP by multidrop micro reagent based assay relative to control; values are per cent of control
[14] = molecular target: T2, Dual specificity tyrosine-phosphorylation-regulated kinase 2 (Homo sapiens) (UniProt Q92630); test: Inhibition of DYRK2 (unknown origin) at 1 uM incubated for 30 mins in presence of [gamma-33P]ATP by multidrop micro reagent based assay relative to control; values are per cent of control
T2 sequence (whole entry): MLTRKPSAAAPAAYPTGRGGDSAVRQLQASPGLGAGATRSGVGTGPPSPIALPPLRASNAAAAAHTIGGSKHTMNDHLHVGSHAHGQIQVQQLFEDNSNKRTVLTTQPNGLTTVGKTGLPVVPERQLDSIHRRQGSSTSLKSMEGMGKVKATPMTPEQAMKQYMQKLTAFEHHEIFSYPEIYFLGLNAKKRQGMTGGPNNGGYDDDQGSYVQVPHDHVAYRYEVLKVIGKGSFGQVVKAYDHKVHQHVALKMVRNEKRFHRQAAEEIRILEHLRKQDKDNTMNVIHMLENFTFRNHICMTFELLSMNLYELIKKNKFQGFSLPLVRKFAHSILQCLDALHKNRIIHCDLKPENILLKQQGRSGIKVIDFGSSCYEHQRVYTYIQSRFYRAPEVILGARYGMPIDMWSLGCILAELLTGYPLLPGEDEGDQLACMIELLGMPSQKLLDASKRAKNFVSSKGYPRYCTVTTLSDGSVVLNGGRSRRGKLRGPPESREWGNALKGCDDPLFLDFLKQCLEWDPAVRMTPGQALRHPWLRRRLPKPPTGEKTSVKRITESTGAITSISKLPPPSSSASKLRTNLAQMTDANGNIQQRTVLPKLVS

[15] = molecular target: Calcium/calmodulin-dependent protein kinase kinase 2 (Homo sapiens) (UniProt Q96RR4); test: Inhibition of CaMKKbeta (unknown origin) at 1 uM incubated for 30 mins in presence of [gamma-33P]ATP by multidrop micro reagent based assay relative to control; values are per cent of control
[16] = molecular target: Insulin-like growth factor 1 receptor (Homo sapiens) (UniProt P08069); test: Inhibition of IGF-1R (unknown origin) at 1 uM incubated for 30 mins in presence of [gamma-33P]ATP by multidrop micro reagent based assay relative to control; values are per cent of control
[17] = molecular target: Mitogen-activated protein kinase kinase kinase 11 (Homo sapiens) (UniProt Q16584); test: Inhibition of MLK3 (unknown origin) at 1 uM incubated for 30 mins in presence of [gamma-33P]ATP by multidrop micro reagent based assay relative to control; values are per cent of control
[18] = molecular target: AMP-activated protein kinase, AMPK (Homo sapiens) (UniProt P54646+O43741+P54619+Q9UGJ0+Q9Y478+Q13131+Q9UGI9); test: Inhibition of AMPK (unknown origin) at 1 uM incubated for 30 mins in presence of [gamma-33P]ATP by multidrop micro reagent based assay relative to control; values are per cent of control

Chain of Mitogen-activated protein kinase 14 (Homo sapiens) (Q16539 whole entry): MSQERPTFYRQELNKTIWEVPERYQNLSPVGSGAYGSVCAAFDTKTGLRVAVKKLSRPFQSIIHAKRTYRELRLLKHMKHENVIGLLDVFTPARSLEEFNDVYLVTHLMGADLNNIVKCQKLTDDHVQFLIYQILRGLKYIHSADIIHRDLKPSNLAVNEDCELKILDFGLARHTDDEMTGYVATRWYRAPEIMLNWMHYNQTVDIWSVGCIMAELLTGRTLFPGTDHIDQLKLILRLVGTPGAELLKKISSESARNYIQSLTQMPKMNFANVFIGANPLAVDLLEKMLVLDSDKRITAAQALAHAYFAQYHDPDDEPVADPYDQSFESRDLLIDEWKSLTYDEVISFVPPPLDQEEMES
Chain of Ribosomal protein S6 kinase beta-1 (Homo sapiens) (P23443 whole entry, looked up): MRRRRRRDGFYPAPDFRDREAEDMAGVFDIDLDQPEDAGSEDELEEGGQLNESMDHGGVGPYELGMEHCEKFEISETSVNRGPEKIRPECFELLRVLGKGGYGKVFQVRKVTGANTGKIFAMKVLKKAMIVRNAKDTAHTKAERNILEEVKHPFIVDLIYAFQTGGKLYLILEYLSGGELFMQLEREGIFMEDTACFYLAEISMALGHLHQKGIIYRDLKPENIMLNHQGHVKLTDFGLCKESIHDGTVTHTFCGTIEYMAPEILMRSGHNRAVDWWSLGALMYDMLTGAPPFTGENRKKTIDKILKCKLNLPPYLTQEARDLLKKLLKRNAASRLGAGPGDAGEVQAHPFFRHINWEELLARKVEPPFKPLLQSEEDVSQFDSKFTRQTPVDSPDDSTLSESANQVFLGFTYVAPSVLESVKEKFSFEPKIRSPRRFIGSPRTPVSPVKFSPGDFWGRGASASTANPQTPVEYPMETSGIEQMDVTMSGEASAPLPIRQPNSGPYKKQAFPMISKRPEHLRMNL
Chain of Calcium/calmodulin-dependent protein kinase kinase 2 (Homo sapiens) (Q96RR4 2-588 limits assumed): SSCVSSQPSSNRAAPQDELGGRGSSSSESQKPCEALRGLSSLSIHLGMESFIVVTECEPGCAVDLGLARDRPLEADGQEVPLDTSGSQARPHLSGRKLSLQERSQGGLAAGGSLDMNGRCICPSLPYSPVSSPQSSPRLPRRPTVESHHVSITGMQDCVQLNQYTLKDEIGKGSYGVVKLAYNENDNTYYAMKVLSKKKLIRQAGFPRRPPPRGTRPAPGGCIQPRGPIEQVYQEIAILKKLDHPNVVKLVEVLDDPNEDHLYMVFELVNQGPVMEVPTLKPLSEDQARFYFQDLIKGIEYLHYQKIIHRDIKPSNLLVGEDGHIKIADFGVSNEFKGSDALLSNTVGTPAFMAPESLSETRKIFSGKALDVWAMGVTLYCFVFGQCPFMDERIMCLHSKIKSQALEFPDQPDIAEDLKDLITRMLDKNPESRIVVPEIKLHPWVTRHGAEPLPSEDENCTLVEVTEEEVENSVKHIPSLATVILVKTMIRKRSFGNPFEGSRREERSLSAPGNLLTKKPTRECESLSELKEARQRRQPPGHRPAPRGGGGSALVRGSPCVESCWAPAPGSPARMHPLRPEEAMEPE
Chain of Serine/threonine-protein kinase N2 (Homo sapiens) (Q16513 whole entry, looked up): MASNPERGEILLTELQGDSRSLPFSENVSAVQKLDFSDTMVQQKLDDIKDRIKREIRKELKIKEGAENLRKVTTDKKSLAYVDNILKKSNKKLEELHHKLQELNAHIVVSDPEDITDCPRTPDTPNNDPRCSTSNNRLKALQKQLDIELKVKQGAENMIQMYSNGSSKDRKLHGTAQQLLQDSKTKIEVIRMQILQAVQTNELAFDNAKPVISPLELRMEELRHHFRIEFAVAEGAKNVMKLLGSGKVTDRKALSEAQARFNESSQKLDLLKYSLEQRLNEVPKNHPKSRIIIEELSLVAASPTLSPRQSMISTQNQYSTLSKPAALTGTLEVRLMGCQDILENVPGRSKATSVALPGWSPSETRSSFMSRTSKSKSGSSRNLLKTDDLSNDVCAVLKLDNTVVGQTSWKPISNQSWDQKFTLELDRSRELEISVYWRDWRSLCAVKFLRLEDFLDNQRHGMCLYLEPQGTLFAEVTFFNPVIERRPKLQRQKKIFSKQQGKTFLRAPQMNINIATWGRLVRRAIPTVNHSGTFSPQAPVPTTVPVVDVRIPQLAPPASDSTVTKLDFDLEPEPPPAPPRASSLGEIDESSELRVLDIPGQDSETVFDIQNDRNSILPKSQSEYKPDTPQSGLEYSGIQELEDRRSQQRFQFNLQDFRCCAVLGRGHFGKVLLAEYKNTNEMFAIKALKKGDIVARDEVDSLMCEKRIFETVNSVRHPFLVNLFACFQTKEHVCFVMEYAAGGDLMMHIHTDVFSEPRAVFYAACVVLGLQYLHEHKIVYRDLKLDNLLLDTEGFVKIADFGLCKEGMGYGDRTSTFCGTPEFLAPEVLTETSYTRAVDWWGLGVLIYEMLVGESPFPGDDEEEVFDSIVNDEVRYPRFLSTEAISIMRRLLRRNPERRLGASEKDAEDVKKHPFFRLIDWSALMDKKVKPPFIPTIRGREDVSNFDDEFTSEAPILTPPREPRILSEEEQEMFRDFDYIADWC
Chain of MAP/microtubule affinity-regulating kinase 3 (Homo sapiens) (P27448 whole entry, looked up): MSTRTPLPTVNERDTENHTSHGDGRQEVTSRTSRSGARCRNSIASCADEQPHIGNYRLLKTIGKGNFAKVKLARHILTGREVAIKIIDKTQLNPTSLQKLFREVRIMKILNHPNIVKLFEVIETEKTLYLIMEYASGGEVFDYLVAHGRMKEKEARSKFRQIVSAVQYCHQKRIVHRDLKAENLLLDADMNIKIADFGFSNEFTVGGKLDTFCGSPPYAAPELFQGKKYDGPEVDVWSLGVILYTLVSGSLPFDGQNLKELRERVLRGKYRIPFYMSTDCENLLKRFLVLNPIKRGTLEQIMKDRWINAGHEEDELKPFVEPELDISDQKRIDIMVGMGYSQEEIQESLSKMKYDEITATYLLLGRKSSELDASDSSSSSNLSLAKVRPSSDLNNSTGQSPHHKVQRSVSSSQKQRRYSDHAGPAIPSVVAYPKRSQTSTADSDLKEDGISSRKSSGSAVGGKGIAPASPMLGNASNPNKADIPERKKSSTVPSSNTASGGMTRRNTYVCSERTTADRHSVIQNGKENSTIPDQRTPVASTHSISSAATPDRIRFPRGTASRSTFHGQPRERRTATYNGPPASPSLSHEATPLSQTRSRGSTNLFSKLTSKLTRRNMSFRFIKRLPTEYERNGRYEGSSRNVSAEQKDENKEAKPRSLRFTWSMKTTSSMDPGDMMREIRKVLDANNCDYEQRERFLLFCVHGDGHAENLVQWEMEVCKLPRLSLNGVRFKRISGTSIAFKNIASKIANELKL
Chain of Tyrosine-protein kinase CSK (Homo sapiens) (P41240 2-450 limits assumed): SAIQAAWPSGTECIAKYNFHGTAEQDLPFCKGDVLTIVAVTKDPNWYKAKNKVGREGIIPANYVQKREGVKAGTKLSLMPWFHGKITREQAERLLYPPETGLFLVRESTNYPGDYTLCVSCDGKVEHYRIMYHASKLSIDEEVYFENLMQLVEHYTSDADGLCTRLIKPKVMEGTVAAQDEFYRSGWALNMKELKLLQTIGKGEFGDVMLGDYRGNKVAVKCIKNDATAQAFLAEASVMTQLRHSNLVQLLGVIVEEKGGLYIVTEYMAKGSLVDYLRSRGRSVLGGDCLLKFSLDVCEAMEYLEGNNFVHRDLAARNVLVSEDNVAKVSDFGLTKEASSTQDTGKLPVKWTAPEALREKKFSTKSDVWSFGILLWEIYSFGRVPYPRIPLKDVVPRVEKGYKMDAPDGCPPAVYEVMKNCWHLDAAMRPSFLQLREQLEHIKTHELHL
Chain of Insulin-like growth factor 1 receptor (Homo sapiens) (P08069 31-736 limits assumed): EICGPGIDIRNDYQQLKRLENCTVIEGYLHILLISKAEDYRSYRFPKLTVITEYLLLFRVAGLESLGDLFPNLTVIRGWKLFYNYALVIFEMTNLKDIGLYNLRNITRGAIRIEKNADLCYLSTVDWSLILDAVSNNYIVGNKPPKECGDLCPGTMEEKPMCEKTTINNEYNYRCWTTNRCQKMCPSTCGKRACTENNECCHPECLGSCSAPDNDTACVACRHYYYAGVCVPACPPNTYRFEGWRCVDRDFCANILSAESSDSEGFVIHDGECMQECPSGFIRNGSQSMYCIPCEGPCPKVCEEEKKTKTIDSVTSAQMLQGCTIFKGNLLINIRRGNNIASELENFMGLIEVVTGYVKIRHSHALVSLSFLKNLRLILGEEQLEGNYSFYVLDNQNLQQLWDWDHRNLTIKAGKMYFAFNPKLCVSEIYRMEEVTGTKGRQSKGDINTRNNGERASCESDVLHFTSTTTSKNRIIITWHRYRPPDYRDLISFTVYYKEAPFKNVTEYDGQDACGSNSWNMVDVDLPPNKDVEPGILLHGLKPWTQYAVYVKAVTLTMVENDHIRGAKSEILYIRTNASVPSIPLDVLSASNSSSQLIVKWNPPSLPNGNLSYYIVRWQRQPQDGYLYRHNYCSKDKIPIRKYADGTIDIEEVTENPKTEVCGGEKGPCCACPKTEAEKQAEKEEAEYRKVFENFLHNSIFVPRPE
Chain of Insulin-like growth factor 1 receptor (Homo sapiens) (P08069 741-1367 limits assumed): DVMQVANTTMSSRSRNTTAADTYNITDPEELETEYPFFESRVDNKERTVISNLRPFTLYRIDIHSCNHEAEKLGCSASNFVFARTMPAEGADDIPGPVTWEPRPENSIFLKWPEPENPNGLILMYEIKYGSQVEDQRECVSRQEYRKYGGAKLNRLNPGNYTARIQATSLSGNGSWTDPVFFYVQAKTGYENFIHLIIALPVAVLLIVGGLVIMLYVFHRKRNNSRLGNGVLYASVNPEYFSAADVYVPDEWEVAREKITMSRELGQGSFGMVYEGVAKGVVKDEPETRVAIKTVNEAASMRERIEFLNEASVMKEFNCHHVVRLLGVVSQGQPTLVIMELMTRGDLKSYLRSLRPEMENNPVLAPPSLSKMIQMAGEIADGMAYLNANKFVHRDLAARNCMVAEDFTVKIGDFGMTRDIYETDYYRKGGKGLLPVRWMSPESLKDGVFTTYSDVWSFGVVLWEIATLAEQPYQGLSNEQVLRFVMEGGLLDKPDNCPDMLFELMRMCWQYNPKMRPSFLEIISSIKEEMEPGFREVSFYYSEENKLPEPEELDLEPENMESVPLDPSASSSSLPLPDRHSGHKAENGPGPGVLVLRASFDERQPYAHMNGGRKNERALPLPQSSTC

SMILES	residual activity [1] [%]	residual activity [2] [%]	residual activity [3] [%]	residual activity [4] [%]	IC50 [5] [µM]	residual activity [6] [%]	residual activity [7] [%]	residual activity [8] [%]	residual activity [9] [%]	residual activity [10] [%]	residual activity [11] [%]	inhibition [12] [%]	residual activity [13] [%]	residual activity [14] [%]	residual activity [15] [%]	residual activity [16] [%]	residual activity [17] [%]	residual activity [18] [%]
CCn1c(-c2nonc2N)nc2cnc(Oc3cccc(NC(=O)c4ccc(OCCN5CCOCC5)cc4)c3)cc21 [GSK-269962A]	2	44	51	1	3.7	108	67	2	105	71	106	98	82	64	98	104	97	
Cc1cncc2cccc(S(=O)(=O)N3CCCNC[C@@H]3C)c12	70	70	49	3	0.244	109	56	72	96	20	103	101	99	84	81	113	85	45
O=S(=O)(c1cccc2cnccc12)N1CCCNCC1 [FASUDIL]					> 30													
CC1=C(C(=O)Nc2cc3cn[nH]c3cc2F)C(c2ccc(C(F)(F)F)cc2)CC(=O)N1 (centres undefined)	40	83	88	3	> 100	103	98	24	111	98	109	106	87	92	100	97	116	78
CCN(CC)CCNC(=O)c1c(C)[nH]c(/C=C2\C(=O)Nc3ccc(F)cc32)c1C	81	17		67											39			15
